The results in this text go back to US20140249076A1, “AMYLIN-CALCITONIN CHIMERIC PEPTIDES CONJUGATED TO DURATION ENHANCING MOIETIES” (AMYLIN PHARMACEUTICALS, LLC, priority 2011, published 2014).

The subject of the assay is mice. In words: Forced swim test (FST). The class given is in vivo, mouse. As to conditions: qualitative result; 0.03 mg/kg dosing, as in Example 8. The text has this:
The forced swim test (FST) is a commonly used paradigm to evaluate antidepressant activity of drugs. The FST is based on measurement of the animal's floating time in a tank filled with water. When rats or mice are forced to swim in a deep cylinder with tepid water they become nearly immobile and cease trying to escape. Without wishing to be bound by any theory, it is believe that this characteristic immobile posture reflects a depressive-like state which is readily influenced by a wide variety of antidepressants. See, e.g., Hedou et al., 2001, Pharmacol, Biochem. Behay. 70:65-76; Chaki et al., 2003, J. Pharmacol. Exp. Ther. 304:818-826; Porsolt et al., 1977, Nature 266:730-732. Antidepressants decrease the immobility time in the FST. Vehicle or test compound can be delivered continuously for two weeks to mice by subcutaneously implanted osmotic pumps prior to the FST. Indeed, any route of administration (e.g., intraperitoneal, subcutaneous, oral and the like) is available. Mice can be placed in the water tank for assessment of climbing, swimming, and immobility over a defined trial session, typically 6 minutes. Test session parameters for mice and rats are typically different, as known in the art.
The forced swim test (FST) is a commonly used paradigm to evaluate antidepressant activity of drugs. […] Specifically, vehicle or test compound was delivered continuously for two weeks to mice by subcutaneously implanted osmotic pumps prior to the FST assay, by methods well known in the art. On day one, the patients were introduced into the tank for a 15 minute pre-swim session. On day two, the patients were placed back into the water tank for assessment of climbing, swimming, and immobility over a 6 minute trial session. The rate of compound infusion was 0.03 mg/kg/day.

Numbered stars: 1 amine (or outer) side, 2 acyl side, 3 side chain; on linkers, the order of the positions; unused ones are H or OH. Bridge positions count the residues as written; N and C are the ends. Side chains are listed from the residue outwards. Peptide text beside a SMILES is read from it. * marks the point of attachment. γGlu = O=C(O)[C@H](CCC(=O)[*:2])N[*:1]; Palmitoyl = CCCCCCCCCCCCCCCC(=O)*

As to `CCCCCCCCCCCCCCCC(=O)N[C@@H](CCC(=O)NCCCC[C@H](NC(=O)[C@H](Cc1c[nH]cn1)NC(=O)[C@H](CC(C)C)NC(=O)[C@H](CCC(=O)O)NC(=O)[C@H](CCC(N)=O)NC(=O)[C@H](C)NC(=O)[C@H](CC(C)C)NC(=O)[C@H](CCCNC(=N)N)NC(=O)[C@H](CCC(N)=O)NC(=O)[C@H](CC(C)C)NC(=O)[C@H](C)NC(=O)[C@@H]1CSSC[C@H](NC(=O)[C@@H](N)CCCCN)C(=O)N[C@@H](CC(N)=O)C(=O)N[C@@H]([C@@H](C)O)C(=O)N[C@@H](C)C(=O)N[C@@H]([C@@H](C)O)C(=O)N1)C(=O)N[C@@H](CC(C)C)C(=O)N[C@@H](CCC(N)=O)C(=O)N[C@H](C(=O)N[C@@H](Cc1ccc(O)cc1)C(=O)N1CCC[C@H]1C(=O)N[C@@H](CCCNC(=N)N)C(=O)N[C@H](C(=O)N[C@@H](CC(N)=O)C(=O)N[C@H](C(=O)NCC(=O)N[C@@H](CO)C(=O)N[C@@H](CC(N)=O)C(=O)N[C@H](C(=O)N[C@@H](Cc1ccc(O)cc1)C(N)=O)[C@@H](C)O)C(C)C)[C@@H](C)O)[C@@H](C)O)C(=O)O` [Cmpd 186, [K^18ε-(γ-Glu(Nα-C16-Chain))]-Cmpd 17] (H-KCNTATCALQRLAQELHK([γGlu-Palmitoyl])LQTYPRTNVGSNTY-NH2; disulfide 2-7 (inferred); N-terminus assumed), the “FST Assay, 0.03 mg/kg” value is “Inactive”.

Regarding `CCCCCCCCCCCCCCCC(=O)N[C@@H](CCC(=O)NCCCC[C@H](NC(=O)[C@H](CCC(N)=O)NC(=O)[C@H](CC(C)C)NC(=O)[C@H](C)NC(=O)[C@@H]1CSSC[C@H](NC(=O)[C@@H](N)CCCCN)C(=O)N[C@@H](CC(N)=O)C(=O)N[C@@H]([C@@H](C)O)C(=O)N[C@@H](C)C(=O)N[C@@H]([C@@H](C)O)C(=O)N1)C(=O)N[C@@H](CC(C)C)C(=O)N[C@@H](C)C(=O)N[C@@H](CCC(N)=O)C(=O)N[C@@H](CCC(=O)O)C(=O)N[C@@H](CC(C)C)C(=O)N[C@@H](Cc1c[nH]cn1)C(=O)N[C@@H](CCCNC(=N)N)C(=O)N[C@@H](CC(C)C)C(=O)N[C@@H](CCC(N)=O)C(=O)N[C@H](C(=O)N[C@@H](Cc1ccc(O)cc1)C(=O)N1CCC[C@H]1C(=O)N[C@@H](CCCNC(=N)N)C(=O)N[C@H](C(=O)N[C@@H](CC(N)=O)C(=O)N[C@H](C(=O)NCC(=O)N[C@@H](CO)C(=O)N[C@@H](CC(N)=O)C(=O)N[C@H](C(=O)N[C@@H](Cc1ccc(O)cc1)C(N)=O)[C@@H](C)O)C(C)C)[C@@H](C)O)[C@@H](C)O)C(=O)O` [Cmpd 193, [K^11ε(γ-Glu(Nα-C16-Chain))]-Cmpd 17] (H-KCNTATCALQK([γGlu-Palmitoyl])LAQELHRLQTYPRTNVGSNTY-NH2; disulfide 2-7 (inferred); N-terminus assumed), the “FST Assay, 0.03 mg/kg” value is given as “Inactive”.

`CCCCCCCCCCCCCCCC(=O)N[C@@H](CCC(=O)NCCCC[C@H](N)C(=O)N[C@H]1CSSC[C@@H](C(=O)N[C@@H](C)C(=O)N[C@@H](CC(C)C)C(=O)N[C@@H](CCC(N)=O)C(=O)N[C@@H](CCCNC(=N)N)C(=O)N[C@@H](CC(C)C)C(=O)N[C@@H](C)C(=O)N[C@@H](CCC(N)=O)C(=O)N[C@@H](CCC(=O)O)C(=O)N[C@@H](CC(C)C)C(=O)N[C@@H](Cc2c[nH]cn2)C(=O)N[C@@H](CCCNC(=N)N)C(=O)N[C@@H](CC(C)C)C(=O)N[C@@H](CCC(N)=O)C(=O)N[C@H](C(=O)N[C@@H](Cc2ccc(O)cc2)C(=O)N2CCC[C@H]2C(=O)N[C@@H](CCCNC(=N)N)C(=O)N[C@H](C(=O)N[C@@H](CC(N)=O)C(=O)N[C@H](C(=O)NCC(=O)N[C@@H](CO)C(=O)N[C@@H](CC(N)=O)C(=O)N[C@H](C(=O)N[C@@H](Cc2ccc(O)cc2)C(N)=O)[C@@H](C)O)C(C)C)[C@@H](C)O)[C@@H](C)O)NC(=O)[C@H]([C@@H](C)O)NC(=O)[C@H](C)NC(=O)[C@H]([C@@H](C)O)NC(=O)[C@H](CC(N)=O)NC1=O)C(=O)O` [Cmpd 192, [K^1ε-(γ-Glu(Nα-C16-Chain))]-Cmpd 17] (H-K([γGlu-Palmitoyl])CNTATCALQRLAQELHRLQTYPRTNVGSNTY-NH2; disulfide 2-7 (inferred); N-terminus assumed): the “FST Assay, 0.03 mg/kg” value is “Active”.

With `CCCCCCCCCCCCCCCC(=O)N[C@@H](CCC(=O)NCCCC[C@H](N)C(=O)N[C@@H](CCCCN)C(=O)N[C@H]1CSSC[C@@H](C(=O)N[C@@H](C)C(=O)N[C@@H](CC(C)C)C(=O)N[C@@H](CCC(N)=O)C(=O)N[C@@H](CCCNC(=N)N)C(=O)N[C@@H](CC(C)C)C(=O)N[C@@H](C)C(=O)N[C@@H](CCC(N)=O)C(=O)N[C@@H](CCC(=O)O)C(=O)N[C@@H](CC(C)C)C(=O)N[C@@H](Cc2c[nH]cn2)C(=O)N[C@@H](CCCNC(=N)N)C(=O)N[C@@H](CC(C)C)C(=O)N[C@@H](CCC(N)=O)C(=O)N[C@H](C(=O)N[C@@H](Cc2ccc(O)cc2)C(=O)N2CCC[C@H]2C(=O)N[C@@H](CCCNC(=N)N)C(=O)N[C@H](C(=O)N[C@@H](CC(N)=O)C(=O)N[C@H](C(=O)NCC(=O)N[C@@H](CO)C(=O)N[C@@H](CC(N)=O)C(=O)N[C@H](C(=O)N[C@@H](Cc2ccc(O)cc2)C(N)=O)[C@@H](C)O)C(C)C)[C@@H](C)O)[C@@H](C)O)NC(=O)[C@H]([C@@H](C)O)NC(=O)[C@H](C)NC(=O)[C@H]([C@@H](C)O)NC(=O)[C@H](CC(N)=O)NC1=O)C(=O)O` [Cmpd 195, Kε-(γ-Glu(Nα-C16-Chain))-Cmpd 17] (H-K([γGlu-Palmitoyl])KCNTATCALQRLAQELHRLQTYPRTNVGSNTY-NH2; disulfide 3-8; N-terminus assumed), the “FST Assay, 0.03 mg/kg” value is reported as “Active”.

As for `CCCCCCCCCCCCCCCC(=O)N[C@@H](CCC(=O)NCCCC[C@H](NC(=O)[C@H](CCC(N)=O)NC(=O)[C@H](CC(C)C)NC(=O)[C@H](CCCNC(=N)N)NC(=O)[C@H](Cc1c[nH]cn1)NC(=O)[C@H](CC(C)C)NC(=O)[C@H](CCC(=O)O)NC(=O)[C@H](CCC(N)=O)NC(=O)[C@H](C)NC(=O)[C@H](CC(C)C)NC(=O)[C@H](CCCNC(=N)N)NC(=O)[C@H](CCC(N)=O)NC(=O)[C@H](CC(C)C)NC(=O)[C@H](C)NC(=O)[C@@H]1CSSC[C@H](NC(=O)[C@@H](N)CCCCN)C(=O)N[C@@H](CC(N)=O)C(=O)N[C@@H]([C@@H](C)O)C(=O)N[C@@H](C)C(=O)N[C@@H]([C@@H](C)O)C(=O)N1)C(=O)N[C@@H](Cc1ccc(O)cc1)C(=O)N1CCC[C@H]1C(=O)N[C@@H](CCCNC(=N)N)C(=O)N[C@H](C(=O)N[C@@H](CC(N)=O)C(=O)N[C@H](C(=O)NCC(=O)N[C@@H](CO)C(=O)N[C@@H](CC(N)=O)C(=O)N[C@H](C(=O)N[C@@H](Cc1ccc(O)cc1)C(N)=O)[C@@H](C)O)C(C)C)[C@@H](C)O)C(=O)O` [Cmpd 187, [K^21ε-(γ-Glu(Nα-C16-Chain))]-Cmpd 17] (H-KCNTATCALQRLAQELHRLQK([γGlu-Palmitoyl])YPRTNVGSNTY-NH2; disulfide 2-7 (inferred); N-terminus assumed), the “FST Assay, 0.03 mg/kg” value is on record as “Inactive”.

Take `CCCCCCCCCCCCCCCC(=O)N[C@@H](CCC(=O)NCCCC[C@H](NC(=O)[C@@H]1CCCN1C(=O)[C@H](Cc1ccc(O)cc1)NC(=O)[C@@H](NC(=O)[C@H](CCC(N)=O)NC(=O)[C@H](CC(C)C)NC(=O)[C@H](CCCNC(=N)N)NC(=O)[C@H](Cc1c[nH]cn1)NC(=O)[C@H](CC(C)C)NC(=O)[C@H](CCC(=O)O)NC(=O)[C@H](CCC(N)=O)NC(=O)[C@H](C)NC(=O)[C@H](CC(C)C)NC(=O)[C@H](CCCNC(=N)N)NC(=O)[C@H](CCC(N)=O)NC(=O)[C@H](CC(C)C)NC(=O)[C@H](C)NC(=O)[C@@H]1CSSC[C@H](NC(=O)[C@@H](N)CCCCN)C(=O)N[C@@H](CC(N)=O)C(=O)N[C@@H]([C@@H](C)O)C(=O)N[C@@H](C)C(=O)N[C@@H]([C@@H](C)O)C(=O)N1)[C@@H](C)O)C(=O)N[C@H](C(=O)N[C@@H](CC(N)=O)C(=O)N[C@H](C(=O)NCC(=O)N[C@@H](CO)C(=O)N[C@@H](CC(N)=O)C(=O)N[C@H](C(=O)N[C@@H](Cc1ccc(O)cc1)C(N)=O)[C@@H](C)O)C(C)C)[C@@H](C)O)C(=O)O` [Cmpd 188, [K^24ε-(γ-Glu(Nα-C16-Chain))]-Cmpd 17] (H-KCNTATCALQRLAQELHRLQTYPK([γGlu-Palmitoyl])TNVGSNTY-NH2; disulfide 2-7 (inferred); N-terminus assumed): the “FST Assay, 0.03 mg/kg” value is “Inactive”.
